Laboratory results as given in patent publication US6239284A, “Aromatic tetracyclic compounds of the retinoid type method for preparing and use” (priority 1997, dated 2001).
“Also recorded” adds a separate entry of the source.

Tests used:
T-47D cells = assay: Anti-proliferation effect, estrogen-induced growth of T-47D cells; type: cell-based, human; conditions: Homo sapiens, T47D, 168 h, read-out: T-47D IC50 (growth inhibition by 50%)
Protocol: So as to test the anti-proliferation effect of the retinoids, growth experiments under oestrogenic conditions were carried out on cells MCF-7 and T-47D. These are the human estrogen-dependent mammary cancer cells which express the receptor to RE estrogens. The effect of the molecules is evaluated after 7 days of culture in oestrogenic conditions (estradiol 10^-9 M) by dosing the cellular DNA. The cells are distributed in 24 well plates at a density of 2×10^4 cells per well. The tests with the different retinoids are carried out in triplicate and the culture medium is changed after 4 days of growth.
The effect of the retinoids on the growth of MCF-7 and T-47D cells is evaluated after 7 days of culture in the presence of 10^-9 M estradiol by dosing the cellular DNA.

RAR = assay: RAR-ERcassette model, specificity profile (transient transfection of HeLa cells); type: cell-based
Description: (§1) The HeLa cells are co-transfected by a plasmid which codes for a retinoic receptor in which the C domain of bonding to the DNA is substituted by that of the receptor to RE estrogens, and a plasmid which places the expression of the luciferase under the control of an ERE (Element of Response to Estrogens). The expressed chimerical receptors are designated as RARα-ERcassette, RARβ-ERcassette, RARγ-ERcassette and RXRα-ERcassette. The A, B, D, E and F regions of the natural receptor are preserved as well as the transcriptional co-operation between the activation domains AF-1 and AF-2. These transitory transfection experiments follow the method of co-precipitation to calcium phosphate. The HeLa cells are co-transfected by […] of plasmid coding for the chimerical receptor, […] of reporter plasmid and […] of expression vector CMV-β-galactosidase used as an internal control of transfection. 24 hours after the transfection, the cells are incubated for 16 hours with the different effectors.
(§2) In this type of chimerical receptor, the C domain of bonding to the DNA of RAR is substituted by that of the receptor to the RE estrogens. The protein obtained is close to the natural RAR receptor and preserves the transcriptional properties of the AF-1 and AF-2 domains. It modulates the transcription by means of an ERE. This RAR-ERcassette model allows one to observe a transcriptional response to a more physiological ligand.
(§3) The study of the selectivity of the compounds was carried out with the RAR-ERcassette chimerical receptors model.

RARE [1] = assay: HRLN transactivation (stably transfected HeLa, RARE3-tk-Luc, endogenic receptors); type: cell-based
Description: (§4) The cellular lineages HRLN and HRL+N allow one to study the activation of an RARE by endogenic receptors using ligands at physiological concentrations. These lineages derive from HeLa cells transfected in a stable fashion by a reporter gene which places the expression of the gene of the luciferase under the control of a nuclear response element RARE (RARE3 -tk-Luc). The HeLa cells express all the known receptors of the retinoic acid (RARα,β,γ and RXRα,β,γ) with a predominance of RARα and RXRα. The response element RARE used for the HRLN cells corresponds to the sequence of the natural gene of the RARβ receptor (GGTTCAnnnnnAGTTCA). The HRL+N cells comprise the sequence GAGTGAnnnnnCGGTGA.

AP-1 = assay: Anti-AP-1 effect, MTLN cellular lineage (MCF-7 with (TRE)3-tk-Luc) activated by TPA; type: cell-based, human
Protocol: The anti-factor AP-1 transrepressor effect of retinoids is determined using the MTLN lineage, coming from MCF-7 cells transfected in a stable fashion by a vector p(TRE)3 -tk-Luc which places the expression of the gene of luciferase under the control of […]. TPA activates the AP-1 complex formed from proteins of the family of nuclear proto-oncogenes (c-Jun and c-Fos). […] The experiments ware made with the MTLN cells activated by 10^-7 M TPA.
The effect of the compounds on the MTLN cells activated by 10^-7 M TPA is expressed as a percentage. […] The inhibitive properties of the products are calculated after deduction of the base activity of the cells. The percentages reported correspond to a range of inhibitions determined from several experiments.

RARα = assay: Transactivation of chimerical receptor RARα-ERcassette, transient transfection of HeLa cells; type: cell-based; conditions: for RAR-ERcassette RARα transactivation (%): 100% = TTNPB 10^-8 M
Description: as §1, §2, §3
(§5) On one and the same line in the Table, the cis (Z) compound represents the isomeric structure of the trans (E) compound.

ERE = assay: Anti-estrogenic effect, MELN cellular lineage (MCF-7 with ERE-βGlob-Luc) activated by estradiol; type: cell-based, human; conditions: for inhibition at 1 µM: -6 log M (10^-6 M), 10^-9 M estradiol
Protocol: MCF-7 cells express RARα,γ and RXRα. The transfection of MCF-7 cells by an estrogen-dependent gene (ERE-βGlob-Luc) has permitted the establishment of the MELN cellular lineage, used to determine the anti-oestrogenic activity of the retinoids. These cells contain the gene of the luciferase under the transcriptional control of the promoter of the βGlobine and of the response element ERE isolated from the gene of chicken vitelogenine A2. The experiments are carried out with MELN cells activated by 10^-9 M estradiol. The level of base activity of the MELN cells is obtained with the anti-estrogen 1 μM 4-OH-tamoxifen (hydroxytamoxifen).
The effect of the products tested on the cells activated by 10^-9 M estradiol is expressed as a percentage, the level of base activity being deducted.

RARγ = assay: Transactivation of chimerical receptor RARγ-ERcassette, transient transfection of HeLa cells; type: cell-based; conditions: -6 log M (1 μM); 100% = TTNPB 10^-8 M
Description: as §1, §2, §3, §5

RARβ = assay: Transactivation of chimerical receptor RARβ-ERcassette, transient transfection of HeLa cells; type: cell-based; conditions: -6 log M (1 μM); 100% = TTNPB 10^-8 M
Description: as §1, §2, §3, §5

RARE [2] = assay: HRL+N transactivation (stably transfected HeLa, RARE reporter, endogenic receptors); type: cell-based; conditions: Homo sapiens, HeLa; Table 12; 1 μM
Description: as §4
The HRL+N lineage allows one to visualize a co-activation of the RAR and RXR receptors at the level of the RAR-RXR hetero-dimer.

[3] = Homo sapiens, read-out: Anti-oestrogenic effect, Inhibition (%)

CC1=C(/C=C/C(C)=C\C=C\C(C)=C\C(=O)O)C(C)(C)CCC1 [9-cis RA, reference compound]
IC50 (T-47D cells): 25.1 ± 1.4 nM
RAR-ERcassette profile in words (RAR): induce an over-expression of luciferase in comparison to the induction brought about by a synthetic compound (TTNPB)
HRLN transactivation in words (RARE [1]): dose-dependent activation
Emax (RARE [1]; Homo sapiens, HeLa, read-out: HRLN transactivation E max %): 196%
Anti-AP-1 effect, Inhibition (%) (AP-1; -8 log M, 10^-7 M TPA, range of several experiments): 30-37%
RAR-ERcassette RARα transactivation (%) (RARα; -6 log M (1 μM)): 348%
RAR-ERcassette RARα transactivation (%) (RARα; -7 log M): 187%
RAR-ERcassette RARα transactivation (%) (RARα; -8 log M): 60%
RAR-ERcassette RARα transactivation (%) (RARα; -9 log M): 7%
inhibition at 0.1 µM (ERE; [3]): 35%

Cc1cc2c(cc1/C=C1\CCc3cc(-c4nnn[nH]4)ccc31)C(C)(C)CCC2(C)C [CB23804, (E) 5-[1-[2-(5,6,7,8-tetrahydro-3,5,5,8,8-pentamethyl)naphthalenylmethylene]-2,3-dihydro-1H-indenyl]-1H-tetrazole]
RAR-ERcassette profile in words (RAR): weakly active
HRLN transactivation in words (RARE [1]): slightly active
activation at 1 µM (RARE [1]; Homo sapiens, HeLa): 15%
RAR-ERcassette RARα transactivation (%) (RARα; -6 log M (1 μM)): 4%
inhibition at 1 µM (ERE; [3]): 0%
RAR-ERcassette RARγ transactivation (%) (RARγ): 19%
RAR-ERcassette RARβ transactivation (%) (RARβ): 28%

CC1(C)CCC(C)(C)c2cc(/C=C3/CCc4cc(C(=O)O)ccc43)ccc21 [CB27871]
HRLN transactivation in words (RARE [1]): partial transactivation
activation at 1 µM (RARE [1]; Homo sapiens, HeLa): 27%
RAR-ERcassette RARα transactivation (%) (RARα; -6 log M (1 μM)): 29%
RAR-ERcassette RARγ transactivation (%) (RARγ): 67%
RAR-ERcassette RARβ transactivation (%) (RARβ): 36%

Cc1cc2c(cc1/C=C1\CCc3cc(C(=O)O)ccc31)C(C)(C)CCC2(C)C [CB40341, (E) 1-[2-(5,6,7,8-tetrahydro-3,5,5,8,8-pentamethyl)naphthalenylmethylene]-2,3-dihydro-1H-indene-5-carboxylic acid]
RAR-ERcassette profile in words (RAR): RARβ,γ specificity; also recorded: RARβ,γ selectivity
HRLN transactivation in words (RARE [1]): partial transactivation
activation at 1 µM (RARE [1]; Homo sapiens, HeLa): 30%
RARα transactivation (RAR-ERcassette) in words (RARα): inactive on RARα
RAR-ERcassette RARα transactivation (%) (RARα; -6 log M (1 μM)): 14%
RAR-ERcassette RARγ transactivation (%) (RARγ): 79%
RAR-ERcassette RARβ transactivation (%) (RARβ): 75%

CC1Cc2cc(C(=O)O)ccc2/C1=C/c1ccc2c(c1)C(C)(C)CCC2(C)C (stereo not shown) [CB52809, (E) 1-[2-(5,6,7,8-tetrahydro-5,5,8,8-tetramethyl)naphthalenylmethylene]-2,3-dihydro-2-methyl-1H-indene-5-carboxylic acid]
activation at 1 µM (RARE [1]; Homo sapiens, HeLa): 0%
RAR-ERcassette RARα transactivation (%) (RARα; -6 log M (1 μM)): 5%
inhibition at 1 µM (ERE; [3]): 0%
RAR-ERcassette RARγ transactivation (%) (RARγ): 13%
RAR-ERcassette RARβ transactivation (%) (RARβ): 0%

CC1(C)CCC(C)(C)c2cc(/C=C3\CCCc4cc(C(=O)O)ccc43)ccc21 [CB66049, (E) 1-[2-(5,6,7,8-tetrahydro-5,5,8,8-tetramethyl)naphthalenylmethylene]-1,2,3,4-tetrahydronaphthalene-6-carboxylic acid]
RAR-ERcassette profile in words (RAR): The same result is observed
HRLN transactivation in words (RARE [1]): inactive
activation at 1 µM (RARE [1]; Homo sapiens, HeLa): 0%
RAR-ERcassette RARα transactivation (%) (RARα; -6 log M (1 μM)): 0%
RAR-ERcassette RARγ transactivation (%) (RARγ): 8%
RAR-ERcassette RARβ transactivation (%) (RARβ): 0%

CC1(C)CCC(C)(C)c2cc(/C=C3\CCc4cc(C(=O)O)ccc43)ccc21 [CB78937, (E) 1-[2-(5,6,7,8-tetrahydro-5,5,8,8-tetramethyl)naphthalenylmethylene]-2,3-dihydro-1H-indene-5-carboxylic acid]
RAR-ERcassette profile in words (RAR): RARβ,γ specificity; also recorded: RARβ,γ selectivity
HRLN transactivation in words (RARE [1]): partial transactivation
activation at 1 µM (RARE [1]; Homo sapiens, HeLa): 25%
RARα transactivation (RAR-ERcassette) in words (RARα): inactive on RARα
RAR-ERcassette RARα transactivation (%) (RARα; -6 log M (1 μM)): 18%
inhibition at 1 µM (ERE; [3]): 4%
RAR-ERcassette RARγ transactivation (%) (RARγ): 93%
RAR-ERcassette RARβ transactivation (%) (RARβ): 65%

CC1(C)CCC(C)(C)c2cc(/C=C3/CCCc4cc(C(=O)O)ccc43)ccc21 [CB80830, (Z) 1-[2-(5,6,7,8-tetrahydro-5,5,8,8-tetramethyl)naphthalenylmethylene]-1,2,3,4-tetrahydronaphthalene-6-carboxylic acid]
RAR-ERcassette profile in words (RAR): The same result is observed
HRLN transactivation in words (RARE [1]): inactive
activation at 1 µM (RARE [1]; Homo sapiens, HeLa): 4%
RAR-ERcassette RARα transactivation (%) (RARα; -6 log M (1 μM)): 2%
inhibition at 1 µM (ERE; [3]): 2%
RAR-ERcassette RARγ transactivation (%) (RARγ): 1%
RAR-ERcassette RARβ transactivation (%) (RARβ): 0%

CC1(C)CCC(C)(C)c2cc(/C=C3/CCc4cc(-c5nnn[nH]5)ccc43)ccc21 [CB94083, (Z) 5-[1-[2-(5,6,7,8-tetrahydro-5,5,8,8-tetramethyl)naphthalenylmethylene]-2,3-dihydro-1H-indenyl]-1H-tetrazole]
RAR-ERcassette profile in words (RAR): weakly active
RAR-ERcassette RARα transactivation (%) (RARα; -6 log M (1 μM)): 4%
activation at 1 µM (RARE [2]): 13%
RAR-ERcassette RARγ transactivation (%) (RARγ): 18%
RAR-ERcassette RARβ transactivation (%) (RARβ): 14%

CC1(C)CCC(C)(C)c2cc(/C=C3\CCc4cc(-c5nnn[nH]5)ccc43)ccc21 [CB99811, (E) 5-[1-[2-(5,6,7,8-tetrahydro-5,5,8,8-tetramethyl)naphthalenylmethylene]-2,3,-dihydro-1H-indenyl]-1H-tetrazole]
RAR-ERcassette profile in words (RAR): weakly active
RAR-ERcassette RARα transactivation (%) (RARα; -6 log M (1 μM)): 3%
RAR-ERcassette RARγ transactivation (%) (RARγ): 14%
RAR-ERcassette RARβ transactivation (%) (RARβ): 11%

CCCCCCCOc1cc2c(cc1/C(C)=C/c1ccc(C(=O)O)cc1)C(C)(C)CCS2(=O)=O [Ro 41-5253]
HRLN transactivation in words (RARE [1]): totally abolishes the response of Am580 and partially abolishes that of TTNPB
Anti-AP-1 effect (MTLN) in words (AP-1): does not allow the inhibition induced by TTNPB to be totally lifted
Anti-estrogenic effect (MELN) in words (ERE): raises the inhibitor effect of Am580 and also of TTNPB
